“Also recorded” adds a separate entry of the source.
Assays:
Huh7.5 F-Luc cells = assay: Cytotoxicity of chloroquine (FIG. 11A); conditions: at the used concentrations
JcR-2a virus = assay: Chloroquine alone and with BJ486K, JcR-2a virus in Huh7.5 F-Luc cells; type: cell-based, HCV; conditions: chloroquine alone
Experimental: Result from one experiment with triplicate measurements is given. (B) Combined effects of CQ on BJ486K activity (and vice versa) were analyzed by inoculation of Huh7.5 F-Luc cells with JcR-2a virus in the presence of given drugs and determination of luciferase activity 72 h later. Results from 3 independent experiments are given.

[1] = system: Luc-Jc1/E2/G451R reporter viruses; assay: Resistance test, Luc-Jc1 versus Luc-Jc1/E2/G451R reporter virus; type: cell-based, HCV; conditions: Huh7-Lunet/CD81 cells, luciferase 72 h
Experimental: FIG. 4: BJ486K is not affected by viral resistance towards a SR-BI-targeting compound, inhibits HCV of different genotypes and prevents infection of primary human hepatocytes Huh7-Lunet/CD81 cells were inoculated with Luc-Jc1 or Luc-Jc1/E2/G451R reporter viruses in the presence of increasing doses of (A) ITX 5061 or (B) BJ486K. Cells were lysed 72 h later. Luciferase activity was determined and is expressed relative to control infections conducted in the presence of DMSO. Mean values of four independent experiments each with quadruplicate measurements including the standard deviation are shown. (C) Huh7-Lunet/CD81 cells were inoculated with genotype 1a, 1b, 2b, 3a, 4a, 5a and 6a chimeric reporter viruses in the presence of increasing doses of BJ486K. Luciferase activity was determined 72 h later and is expressed relative to infections in the presence of DMSO. Mean values of three independent experiments, each with triplicate measurements, are given. (D) Primary human hepatocytes were inoculated with Con1/C3 in the presence of DMSO or increasing concentrations of BJ486K. The inhibition of HCV infection was assessed by focus-formation assay and is expressed as % inhibition relative to DMSO-treated cells. Mean values of duplicate measurements including the error range are given. […]

[2] = UV-visible spectrophotometric titration by MgCl2; type: physicochemical; conditions: high excess of Mg(II); CH3CN/H2O (1:1 by volume)
Experimental: FIG. 17: (A) UV-visible spectrophotometric titration of BJ486K (newly re-prepared as XM148) by MgCl2 and (B) absorption electronic spectra of the flavone BJ486K and its magnesium(II) complex BJ486K-MgCl2. Solvent: CH3CN/H2O (1:1 by volume); T=25.0° C.; l=1 cm; [BJ486K]tot=7.63×10^−5 M; (1) [MgCl2]tot/[BJ486K]tot=0; (2) [MgCl2]tot/[BJ486K]tot=185.8. To ensure solubilisation of both the flavone BJ486K (newly re-prepared as XM148) and MgCl2, a mixed solvent made of 50% of water and 50% of CH3CN was used. A stock solution of XM148 ([…] in 10 mL of argon saturated CH3CN, [XM148]tot=9.54×10^−3 M) was prepared. 160 μL of the flavone stock solution in CH3CN was diluted in 1 mL and 840 μL of Ar-saturated water and CH3CN, respectively. The absorption spectrophotometric titration (200-800 nm) was carried out by successive addition of aliquots (10 μL) of a stock solution of MgCl2 freshly prepared in water (337.6 mg in 5 mL, [MgCl2]tot=7.09×10^−3 M). […]
FIG. 18: (A) UV-visible spectrophotometric titration of XM131 (final precursor B, Scheme 2) by MgCl2. […] Absorption spectra (200-800 nm) was recorded after each addition of aliquots (10 μL) of a stock solution of MgCl2 freshly prepared in water (337.6 mg in 5 mL, [MgCl2]tot=7.09×10^−3 M). […]

Jc1 = assay: HCV virus assembly/release, intra- and extracellular core protein after Jc1 RNA transfection; type: cell-based; conditions: 48 h after transfection, drugs added 4 h after transfection
Experimental: (A) Huh7-Lunet/CD81 cells were transfected with the subgenomic luciferase replicon depicted at the top. Drugs were added 4 h post transfection and the level of HCV RNA translation and RNA replication was quantified by luciferase assays 72 h post transfection. Mean values of three independent experiments each with quadruplicate measurements including the standard deviation are shown. (B) Cells were transfected with the Jc1 chimera depicted above and drugs were added 4 h later. HCV virus release in the presence or absence of given compounds was determined by quantification of intracellular and extracellular core protein levels using a core-specific ELISA. Mean values of three independent experiments with single measurements including the error range are given. (C) Huh7-Lunet/CD81 cells were inoculated with Luc-Jc1 reporter viruses prepared in the absence of drugs. BJ486K was added to the cells only prior to inoculation (black), only during inoculation (grey) or selectively directly after inoculation (white) as schematically depicted at the top. Infectivity was determined 72 h later by luciferase assays and compared to DMSO-treated controls. Mean values of three independent experiments each with quadruplicate measurements including the standard deviation are shown.
Huh7-Lunet/CD81 cells were transfected with Jc1 RNA and seeded on a 6-well plate. Compounds were added 4 h later. At 48 h after transfection, cell culture supernatant was harvested and used for measuring the extracellular core amount. Cells were washed once with PBS, scraped and centrifuged for 5 min at 1000×g. Cell pellets were resuspended in 500 μl fresh culture fluid and subjected to three cycles of freeze and thaw using liquid nitrogen and a 37° C. thermo block. Samples were than centrifuged at 10,000×g for 10 min to remove cell debris and the core amount was measured (intracellular core protein) using the […] […]
To determine whether BJ486K affects virus assembly or release we transfected Huh7-Lunet/CD81 cells with Jc1 RNA and quantified intra- and extracellular levels of core protein 48 h after transfection (FIG. 2B).

JcR-2a virus particles = assay: Antiviral activity against early steps of HCV cell entry, synchronized JcR-2a infection (FIG. 3); type: cell-based; conditions: heparin 50 μg/ml, JS-81 2 μg/ml; inhibitor present 4 h
Experimental: FIG. 3: BJ486K inhibits cell entry post virus attachment. The design of the JcR-2a reporter virus construct is given at the top. Huh7-Lunet/CD81 cells were inoculated with concentrated JcR-2a particles at 4° C. for 60 minutes. Subsequently, unbound virus particles were washed away and cells were shifted to 37° C. to permit synchronized cell entry. According to the 8 experimental protocols depicted in the middle, various cell entry inhibitors including heparin (50 μg/ml), ITX5061 (10 μM), CD81-specific antibody JS-81 (2 μg/ml) and BJ486K (20 μM) were either present during inoculation (protocol 1) or were added at different time points after inoculation (protocols 2 to 8). In each case, inhibitor was present for 4 h (dashed line) and was then washed away. Efficiency of cell entry was determined 48 h post inoculation by determination of luciferase activity and is expressed relative to control infections conducted in the presence of solvent alone (DMSO). Mean values of three independent experiments each with quadruplicate measurements including the standard deviation are shown.
JcR-2a virus particles were incubated with Huh7-Lunet/CD81 cells seeded as described above for 1 h at 4° C. to synchronize cell entry. Various inhibitors including 50 μg/ml heparin (Sigma-Aldrich), CD81-specific antibody JS-81 (2 μg/ml; Becton Dickinson), ITX 5061 (10 μM) or BJ486K (20 μM), were added during virus inoculation (protocol 1) or at indicated time points after virus inoculation (protocol 2-8). After 4 h inhibitor treatment, medium was changed to fresh culture fluid without inhibitors and the cells were lysed 48 h after inoculation as described above. Efficiency of infection was determined by luciferase assay using a tube luminometer (Lumat LB9507, Berthold, Freiburg, Germany).
To resolve which step of HCV cell entry is inhibited by BJ486K, we assessed its antiviral activity when administered at different time points during the early phase of infection. To this end, Huh7-Lunet/CD81 cells were inoculated for one hour at 4° C. with a reporter virus prepared in the absence of drugs. […]

Compound: CCN(CC)CCCC(C)Nc1ccnc2cc(Cl)ccc12 (stereo not drawn) [Chloroquine, chloroquine]
- cytotoxicity (Huh7.5 F-Luc cells): no cytotoxicity detectable
- cytotoxicity (Huh7.5 F-Luc cells; listed as chloroquine): no cytotoxicity
- anti-HCV effect (JcR-2a virus): dose-dependent anti-HCV effect
- anti-HCV effect (JcR-2a virus; listed as chloroquine): dose-dependent inhibition of HCV

Compound: COc1c(NC(=O)C(=O)c2ccc(OCCN3CCOCC3)c3ccccc23)cc(C(C)(C)C)cc1NS(C)(=O)=O [ITX5061, reference compound]
- antiviral activity against G451R mutant compared with wild type [1]: resistant

Compound: COc1ccc(-c2cc(=O)c3c(OC)c(O)c(OC)cc3o2)cc1 [XM131, 6-Hydroxy-5,7-dimethoxy-2-(4-methoxy-phenyl)-chromen-4-one]
- Mg(II) complexation [2]: no absorption variation can be observed; also recorded: no Mg(II) complex is observed

Compound: O=C1C[C@@H](c2ccc(O)cc2)Oc2cc(O)cc(O)c21 [naringenin]
- reduction of extracellular levels of core protein (Jc1): ca. 5 fold

Compound: C=C[C@H]1C[N@@]2CC[C@H]1C[C@@H]2[C@@H](O)c1ccnc2ccc(OC)cc12 [quinidine]
- reduction of extracellular levels of core protein (Jc1): more than 100 fold

Compound: heparin [reference compound]
- inhibition of HCV entry by time of addition, in words (JcR-2a virus particles): only interfered with HCV infection when present already during inoculation
